In PubChem BioAssay (NCI) one finds TGI data, which are given here for 27 compounds.

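Interpolation was linear, between the two tested concentrations surrounding the appropriate level; five concentrations were tested over 48 hours in 96-well plates. TGI: concentration producing complete growth inhibition.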 Where a SMILES comes first, the peptide text is derived from it. [ ]: non-standard residue; d: D form. The star is where a group is joined. ξ: configuration not given here. X37 = O=C(OCc1ccccc1)[C@@H]1CCC[C@H]1N*; Fmoc = O=C(OCC1c2ccccc2-c2ccccc21)*; ξW = NC(Cc1c[nH]c2ccccc12)C(=O)O; ξF = NC(Cc1ccccc1)C(=O)O; Boc = CC(C)(C)OC(=O)*; ξK = NCCCCC(N)C(=O)O; ξT = CC(O)C(N)C(=O)O; OBn = c1ccc(CO*)cc1; Bn = c1ccc(C*)cc1; tBu = CC(C)(C)*

Test in all cases: growth of human tumour cells (NCI), 48 h
Assay [1] relates to A549 NSCLC.
In assay [2] the test system is DU-145 prostate.
Assay [3] deals with MCF7 breast.
Assay [4] relates to OVCAR-8 ovarian.
The subject of assay [5] is RPMI-8226 leukemia.
Assay [6] deals with SF-268 CNS.
Assay [7] concerns SK-MEL-28 melanoma.
For assay [8], the system named is SK-OV-3 ovarian.
Assay [9] deals with SN12C renal.

For `COC(=O)c1c(C)nc(C)c(N=O)c1-c1ccccc1C(F)(F)F`, the TGI in assay [1] is above 100 µM; in [2], above 100 µM; in assay [3], 40.8 µM; in assay [4] it was 35.6 µM; in [5], above 100 µM; in assay [6] it was 30.8 µM. The TGI in assay [7] is 28.4 µM; in assay [8], above 100 µM; in assay [9], 38.6 µM.

For `CCOc1ccc(N=NC2C(=O)N(C(=O)CC(=O)Nc3ccc(Cl)cc3)N=C2C)cc1` (configuration not stated), the TGI in assay [1], in assay [2], in assay [3], in [4], in assay [5] and in assay [6] was above 100 µM in each case. Also, the TGI in assay [7], in assay [8] and in assay [9] was above 100 µM in each case.

For `Nc1nc(Cl)cc(NCC2(CO)CC(CCCCc3ccccc3)C2)n1` (configuration not stated), the TGI in assay [1] was above 100 µM; in assay [2], above 100 µM; in assay [3] it was above 100 µM; in [4] it was above 100 µM; in assay [5], 86.2 µM; in assay [6] it was above 100 µM. Moreover, the TGI in assay [7], in assay [8] and in assay [9] was above 100 µM throughout.

Consider `CCOC(=O)Nc1ccc(S(=O)(=O)Nc2ccc(Br)cc2)cc1`, for which the TGI in [1] was above 100 µM; in [2] it was above 100 µM; in assay [3] it was 75.7 µM; in assay [4], 68.4 µM; in assay [5], above 100 µM; in [6], above 100 µM. Also, the TGI in assay [7], in [8] and in [9] was above 100 µM in each case.

Take `N=C(/C=C/c1ccc(-c2cn3cc(/C=C/C(=N)N4CCOCC4)ccc3n2)cc1)N1CCOCC1`: the TGI in [1], in assay [2], in [3], in assay [4], in [5] and in assay [6] was above 100 µM each time. In addition, the TGI in [7], in [8] and in [9] was above 100 µM throughout.

Regarding `C[N+](C)(C)CCCCCc1c2nc(c(CCCCC[N+](C)(C)C)c3ccc([nH]3)c(CCCCC[N+](C)(C)C)c3ccc([nH]3)c(CCCCC[N+](C)(C)C)c3nc1C=C3)C=C2`, the TGI in [1], in assay [2], in assay [3], in assay [4], in assay [5] and in assay [6] was above 100 µM in each case. Also, the TGI in assay [7], in [8] and in assay [9] was above 100 µM each time.

Consider `CC(C)CC(NC(=O)C(Cc1ccccc1)NC(=O)C(COCc1ccccc1)NC(=O)OC(C)(C)C)C(=O)OCc1ccccc1` (stereo not drawn) (Boc-Ser(Bn)-Phe-Leu-OBn; configuration not given here), for which the TGI in assay [2] was 25.2 µM; in [3], above 100 µM; in [4] it was 34.6 µM; in assay [5], 33.2 µM; in assay [6], 43 µM; in assay [7], 42 µM. In addition, the TGI is above 100 µM in assay [8] and 63.9 µM in assay [9].

In the case of `COc1ccc(N(C(=O)OC(C)(C)C)[C@@H]2C(C)=C[C@H]([S@@](=O)c3ccc(C)cc3)[C@@H]3C(=O)N(C)C(=O)[C@@H]32)cc1`, the TGI in assay [1] was above 100 µM; in assay [2], 81.8 µM; in assay [3], 62.1 µM; in [4] it was 46.7 µM; in [5], 44.3 µM; in [6], 33.9 µM. Moreover, the results for the TGI in assay [7], in assay [8] and in assay [9] were 41.3 µM, 30.3 µM and 32.2 µM, respectively.

For the compound `COc1ccc(OC)c2c1C[C@@H]1C(C#N)N3[C@H](Cc4c(OC)ccc(OC)c4[C@@H]3C)C(=O)N1[C@H]2C` (some centres not stated), the TGI in assay [1] was above 54.3 µM; in [2] it was above 54.7 µM; in assay [3], 17.5 µM; in assay [4], 9.93 µM; in [5] it was 7.29 µM; in [6] it was 6.71 µM. Also, the TGI in assay [7] was 10.1 µM; in [8], 29.4 µM; in [9] it was above 50.2 µM.

With `Cc1ccc(Nc2ncnc3sc(SCc4ccccc4)nc23)cc1`, the TGI in [1], in assay [2], in [3], in [4], in assay [5] and in assay [6] was above 100 µM throughout. Moreover, the TGI in assay [7], in [8] and in [9] was above 100 µM in each case.

`CC(=O)c1ccc2c(c1)CC1(C2)Cc2cc3c(cc2C1)C(=O)CC3` (configuration not stated): the TGI in [1] is 29.2 µM; in assay [2], 25.8 µM; in [3], 26.4 µM; in assay [4] it was 19.5 µM; in assay [5] it was 3.61 µM; in [6] it was above 100 µM. The results for the TGI in assay [7], in assay [8] and in [9] were 30.4 µM, above 66.1 µM and above 100 µM, respectively.

Take `CC(C)(C)[C@@H]1NC(=O)CN1C(=O)OCc1ccccc1`: the TGI in assay [1], in assay [2], in [3], in assay [4], in [5] and in [6] was above 100 µM in each case. In addition, the TGI in assay [7], in [8] and in assay [9] was above 100 µM in each case.

Regarding `CC(C)(C)c1cc(C2COC(=O)COCCOCC(=O)OCCOCCO2)cc(C(C)(C)C)c1O` (configuration not stated), the TGI is above 100 µM in assay [1]; 37.1 µM in assay [2]; above 100 µM in [3]; above 100 µM in assay [4]; above 100 µM in [5]; above 90.7 µM in assay [6]. For the same compound, the TGI was above 100 µM in assay [7], above 78.4 µM in [8] and 44.6 µM in [9].

On to `Fc1ccc(C(=NCc2ccccc2)N2CCOCC2)cc1`, for which the TGI in assay [2], in [3], in assay [4], in [5], in assay [6] and in assay [7] was above 100 µM in each case. Further, the TGI in assay [8] and in assay [9] was above 100 µM in each case.

On to `O=C(/C=C1\N=C(c2ccccc2)N(c2ccc3c(c2)Sc2cc(N4C(=O)/C(=C/C(=O)/C=C/c5ccccc5)N=C4c4ccccc4)ccc2N3)C1=O)/C=C/c1ccccc1`, for which the TGI in [1] was above 100 µM; in [2] it was above 100 µM; in assay [3] it was 56.1 µM; in assay [4], above 100 µM; in assay [5], above 100 µM; in assay [6], above 100 µM. The TGI is above 100 µM in [7], 33.8 µM in [8] and above 100 µM in [9].

With `CC(C)C[C@H](NC(=O)[C@@H](Cc1cccc2ccccc12)NC(=O)N1CCOCC1)B(O)O`, the TGI is 68 µM in [1]; 29.7 µM in [2]; above 52.7 µM in assay [3]; 44.9 µM in [4]; 17.4 µM in assay [5]; 15.1 µM in assay [6]. Also, the TGI was determined as 6.92 µM in [7], 40.6 µM in assay [8] and 20.4 µM in assay [9].

On to `CC(OC(C)(C)C)C(NC(=O)C(CCCCNC(=O)OC(C)(C)C)NC(=O)C(Cc1c[nH]c2ccccc12)NC(=O)C(Cc1ccccc1)NC(=O)OCC1c2ccccc2-c2ccccc21)C(=O)NC(Cc1ccccc1)C(=O)N[C@@H]1CCC[C@H]1C(=O)OCc1ccccc1` (some centres not stated) (Fmoc-[ξF][ξW][ξK](Boc)[ξT](tBu)[ξF]-X37), for which the TGI in [1], in assay [2], in assay [3], in [4], in assay [5] and in assay [6] was above 100 µM each time. In addition, the TGI in [7], in assay [8] and in assay [9] was above 100 µM each time.

Consider `COC(=O)CP1(=O)OC2C(C3CCC2(C)C3(C)C)N1c1cc(C(F)(F)F)cc(C(F)(F)F)c1` (configuration not stated), for which the TGI in assay [1] was above 100 µM; in [2], above 100 µM; in assay [3], above 100 µM; in [4] it was above 100 µM; in [5], 42.5 µM; in [6], 82.1 µM. Further, the TGI in assay [7] is above 100 µM; in [8] it was 80.5 µM.

Consider `OC1(c2ccc(Cl)cc2)c2ccccc2C2=Nc3ccccc3CN21` (configuration not stated), for which the TGI in assay [1] is 28.6 µM; in assay [2], above 100 µM; in assay [3] it was above 87.7 µM; in assay [4] it was 38.2 µM; in assay [5] it was above 100 µM; in [6] it was above 100 µM. In addition, the TGI is 98.3 µM in assay [7], above 100 µM in assay [8] and above 79.6 µM in [9].

For the compound `COC(=O)C1Cc2c([nH]c3ccccc23)-c2[nH]c3ccccc3c2CC(NC(C)=O)C(=O)NCC(=O)N1` (configuration not stated), the TGI in [1], in [2], in assay [3], in assay [4], in assay [5] and in assay [6] was above 100 µM in each case. The TGI in assay [7], in [8] and in [9] was above 100 µM throughout.

With `CC(=O)c1nc2ccccc2n1CC(=O)c1ccc([N+](=O)[O-])cc1`, the TGI is 37.6 µM in assay [1]; above 100 µM in assay [2]; 58.8 µM in assay [3]; 21 µM in assay [4]; above 100 µM in [5]; above 100 µM in assay [6]. The TGI in assay [7], in assay [8] and in assay [9] was above 100 µM throughout.

In the case of `CCC1=C(C)C2=NC1=CC1=NC(=C(CC)/C1=C/O)C=C1N=C3C(=C1C)C(=O)C(C(=O)OC)C3=C1NC(=C2)C(C)C1CCC(=O)OC` (configuration not stated), the TGI in [1], in [2], in [3], in [4], in assay [5] and in [6] was above 100 µM throughout. The TGI in assay [7], in assay [8] and in assay [9] was above 100 µM throughout.

`S=C1c2cc(Cl)ccc2NC(=NC2CCCC2)C2CSCN12` (configuration not stated): the TGI in assay [1], in assay [2], in assay [3], in assay [4], in [5] and in assay [6] was above 100 µM in each case. Besides, the TGI in assay [7], in [8] and in assay [9] was above 100 µM in each case.

As for `Cc1nc2c(=O)[nH]c(=O)nc-2n(CCO)c1C`, the TGI in assay [1], in assay [2], in assay [3], in [4], in assay [5] and in assay [6] was above 100 µM in each case. Moreover, the TGI in assay [7], in [8] and in assay [9] was above 100 µM each time.

For the compound `O=c1[nH]c2ccc(CC(=S)N3CCN(c4ccccc4)CC3)cc2s1`, the TGI in [2] is above 100 µM; in assay [3], above 100 µM; in assay [4], 82 µM; in assay [5] it was 49.8 µM; in assay [6] it was above 100 µM; in [7] it was above 100 µM. The TGI in [8] was 44.9 µM; in [9] it was above 100 µM.

As for `CC(C)(C)[Si](C)(C)OCC1OC(n2ccc(=O)[nH]c2=O)C(O[Si](C)(C)C(C)(C)C)/C1=N/O` (configuration not stated), the TGI in assay [1] was 14 µM; in [2], 28.5 µM; in assay [3], 27.7 µM; in assay [4] it was 13.9 µM; in assay [5], 7.75 µM; in assay [7], 9.69 µM. Further, the figures for the TGI in assay [8] and in assay [9] were 26 µM and 16.3 µM, respectively.

Regarding `COC(=O)c1nc2c(C)c(O)c(O)c([C@H](C)CCC=C(C)C)c2o1`, the TGI in assay [1] was 57.1 µM; in [2] it was above 100 µM; in assay [3] it was above 100 µM; in assay [4], above 100 µM; in assay [5] it was above 100 µM; in assay [6], above 100 µM. Besides, the TGI in [7] and in assay [8] was above 100 µM each time.
